# Data published in patent US20260056197A1, “METHOD FOR MEASURING TRACP-5b AND KIT THEREFOR” (NITTO BOSEKI CO., LTD., priority 2023, published 2026).
# Columns and labels:
# Type in all cases: biochemical
# TRACP-5a [1] = biological target: T1, TRACP-5a (Homo sapiens, UniProt P13686); test: Test 1: evaluation of TRACP-5a inhibitor in an enzyme method; conditions: Table 4, 0.1 mass % evaluation compound in chromogenic substrate solution; for Activity value 5a: 7 U/L TRACP-5a solution, control without compound 6.5; for 5b/5a ratio: control without compound 1.1
# T1 construct: purchased R&D Systems, Inc
# T1 sequence (P13686 22-325): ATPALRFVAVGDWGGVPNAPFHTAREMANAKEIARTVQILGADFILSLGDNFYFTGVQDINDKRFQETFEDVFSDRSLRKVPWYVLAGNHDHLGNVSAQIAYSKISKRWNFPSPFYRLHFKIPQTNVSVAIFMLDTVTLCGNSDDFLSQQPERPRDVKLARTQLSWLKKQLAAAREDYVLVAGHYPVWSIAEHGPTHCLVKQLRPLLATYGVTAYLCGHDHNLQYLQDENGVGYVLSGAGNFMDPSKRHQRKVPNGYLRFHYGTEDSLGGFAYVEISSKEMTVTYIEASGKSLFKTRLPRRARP
# Description: TRACP-5b manufactured by Nittobo Medical Co., Ltd. and TRACP-5a manufactured by R&D Systems, Inc. were diluted with a 22 mM MES buffer (pH 5.0) to prepare a 7 U/L TRACP-5b solution and a 7 U/L TRACP-5a solution, and the solutions were used as measurement samples. In the measurement with sodium hyaluronate, a 7 U/L TRACP-5b solution and an 8 U/L TRACP-5a solution prepared in the same manner were used.
# A chromogenic substrate solution having the following composition was used. • 5 mM 2-chloro-4-nitrophenyl phosphate • 109 mM MES • 40 mM sodium tartrate • 0.1 mass % evaluation compound • pH 6.6
# (§1) For the measurement, Hitachi automatic analyzer model 7180 (Hitachi High-Tech Corporation) was used. To 16 μL of the 7 U/L TRACP-5b solution, or the 7 U/L TRACP-5a solution or the 8 U/L TRACP-5a solution, 200 μL of the chromogenic substrate solution containing an evaluation compound was added to start an enzymatic reaction, and the absorbance (primary wavelength: 405 nm, secondary wavelength: 480 nm) was measured for 516.0 seconds starting at 340.5 seconds after the beginning of the enzymatic reaction. The amount of absorbance change per minute (the amount of absorbance change per unit time during the enzymatic reaction) was determined from the absorbance change between both the time points.
# (§2) On the other hand, serial dilutions of a TRACP-5b reference solution with known activity in a 22 mM MES buffer solution (pH 5.0) as well as a 22 mM MES buffer solution (pH 5.0) as a blank were prepared; the serial dilutions of the TRACP-5b reference solution were measured using the chromogenic substrate solution containing each evaluation compound, thereby producing a standard straight line for the TRACP-5b. In addition, the serial dilutions of the TRACP-5b reference solution were measured using the chromogenic substrate solution without any evaluation compound in the same manner, thereby producing a standard straight line for the TRACP-5b. The chromogenic substrate solution containing each evaluation compound and the chromogenic substrate solution without any evaluation compound were used to measure the TRACP-5b solution and the TRACP-5a solution, and these standard straight lines were used to calculate activity values from the obtained amounts of absorbance change.
# The measurement using sodium hyaluronate was performed in a separate batch from that with other evaluation compounds.
# TRACP-5b [2] = test: as above; conditions: Table 4; 0.1 mass % evaluation compound in chromogenic substrate solution; 7 U/L TRACP-5b solution; control without compound 6.9
# Description: The amount of absorbance change per minute (the amount of absorbance change per unit time during the enzymatic reaction) was determined from the absorbance change between both the time points.
# as §2
# TRACP-5a [3] = biological target: T1, TRACP-5a; test: Test 2: study of concentration of TRACP-5a inhibitor (enzyme method); conditions: Table 8; for Activity value 5a: 8 U/L TRACP-5a solution, control 8.0; for 5b/5a ratio: control 0.9
# Description: as §1, §2
# (§3) For dextran sulfate sodium (5K), dextran sulfate sodium (50K), sodium polyvinyl sulfonate (5K), and sodium vinylsulfonate, the influence of the concentration on the inhibitory activity was studied.
# (§4) The concentration of each evaluation compound in the measurement reagent (chromogenic substrate solution) was adjusted as follows.
# (§5) A 7 U/L TRACP-5b solution and a 7 U/L TRACP-5a solution were used in the test using a reagent containing dextran sulfate sodium (5K) and dextran sulfate sodium (50K); a 7 U/L TRACP-5b solution and a 7 U/L or 8 U/L TRACP-5a solution were used in the test using a reagent containing sodium polyvinyl sulfonate (5K); and a 7 U/L TRACP-5b solution and an 8 U/L TRACP-5a solution were used in the test using a reagent containing sodium vinylsulfonate.
# (§6) The chromogenic substrate solution having the same composition as in Test 1 was used, except that the concentration of each evaluation compound was as described above. The measurement method was carried out in the same procedure as in Test 1.
# TRACP-5b [4] = test: as above; conditions: Table 8, 7 U/L TRACP-5b solution, control 6.9
# Description: as §1, §2, §3, §4, §5, §6
# TRACP-5a [5] = biological target: T1, TRACP-5a; test: Evaluation of TRACP-5a inhibitor in EIA method; conditions: for 5b/5a ratio: Table 14, 0.1 mass % evaluation compound in chromogenic substrate solution, control without compound 1.3; for Abs. 405 nm 5a: Table 14, antibody-immobilized plate, 0.1 mass % evaluation compound in chromogenic substrate solution, 7 U/L TRACP-5a solution, control without compound 0.1956
# Description: (§7) A TRACP-5b monoclonal antibody (Accession Number IPOD FERM BP-7890) was diluted with PBS (8 mM disodium hydrogenphosphate, 1.5 mM sodium dihydrogenphosphate, 2.7 mM KCl, and 137 mM NaCl; pH 7.5) to 10 µg/mL, and 100 μL of the antibody-containing solution was added to each well of an ELISA plate (manufactured by Thermo Fisher Scientific, Inc., product number 468667). The solution was left to stand overnight under refrigeration, then washed 3 times with 300 μL of TBS-T (50 mM Tris-HCl, 150 mM NaCl, and 0.05% Tween 20; pH 7.5), then 300 μL of TBS containing 1.5% BSA was added, and the mixture was left to stand overnight under refrigeration.
# (§8) After the TBS containing 1.5% BSA was removed from the prepared antibody-immobilized plate, 100 μL of TBS (50 mM Tris-HCl and 150 mM NaCl, pH 7.5) and 50 μL of the 7 U/L TRACP-5b solution or the 7 U/L TRACP-5a solution were added to each well, and the mixture was reacted for 1 hour under stirring (25° C., 700 rpm). After washing 3 times with 300 µL of TBS-T, 100 μL of a chromogenic substrate solution (5 mM 2-chloro-4-nitrophenyl phosphate, 109 mM MES, and 40 mM sodium tartrate; pH 6.6) to which the evaluation compound was added at a concentration of 0.1 mass % was added to each well, and the plate was left to stand at 37° C. for 1 hour. Thereafter, 50 μL of 0.5 N NaOH was added, and the absorbance (primary wavelength: 405 nm, secondary wavelength: 490 nm) was measured with a plate reader.
# TRACP-5b [6] = test: Evaluation of TRACP-5a inhibitor in EIA method; conditions: Table 14, antibody-immobilized plate, 0.1 mass % evaluation compound in chromogenic substrate solution, 7 U/L TRACP-5b solution, control without compound 0.2477
# Description: as §7, §8
Compound,Activity value 5a (TRACP-5a [1]) [U/L],5b/5a ratio (TRACP-5a [1]),Activity value 5b (TRACP-5b [2]) [U/L],Activity value 5a (TRACP-5a [3]; VSA Na 0.0100 mass %) [U/L],5b/5a ratio (TRACP-5a [3]; VSA Na 0.0100 mass %),Activity value 5a (TRACP-5a [3]; VSA Na 0.0150 mass %) [U/L],5b/5a ratio (TRACP-5a [3]; VSA Na 0.0150 mass %),Activity value 5b (TRACP-5b [4]; VSA Na 0.0100 mass %) [U/L],Activity value 5b (TRACP-5b [4]; VSA Na 0.0150 mass %) [U/L],5b/5a ratio (TRACP-5a [5]),Abs. 405 nm 5a (TRACP-5a [5]),Abs. 405 nm 5b (TRACP-5b [6]),Activity value 5a (TRACP-5a [3]; VSA Na 0.0200 mass %) [U/L],5b/5a ratio (TRACP-5a [3]; VSA Na 0.0200 mass %),Activity value 5b (TRACP-5b [4]; VSA Na 0.0200 mass %) [U/L]
"C=CS(=O)(=O)[O-].[Na+] [Example 5, Sodium vinylsulfonate]",1.6,4.1,6.5,6.8,1.0,5.6,1.2,6.8,6.8,3.4,0.0775,0.2600,–,–,–
Sodium vinylsulfonate [Example 5],–,–,–,–,–,–,–,–,–,–,–,–,4.5,1.5,6.9
"β-cyclodextrin sodium sulfate [Comparative example 1, reference compound]",2.3,2.9,6.7,–,–,–,–,–,–,2.3,0.0853,0.1971,–,–,–
